Measurements as given in paper PMC4937332 (2016).

Test system: T8A7 (in solution, with anchor) (RNA, riboswitch) GGGGAACAAACAUUCAAAAUAAUAACACAAGAUAUGAGCGAAUGACAGCAAGGGGAGAGACCUGACCGAAAACCUCGGGAUACAGGCGCCGAAGGAGCAAACUGCGGAGUGAAUCUCUCAGGCAAAAGAACUCUUGCUCGACGCAACUCUGGAGAGUGUUUGUGCGGAUGCGCAAACCACCAAAGGGGACGUCUUUGCGUAUGCAAAGUAAACUUUCAGGUGCCAGGACAGAGAAGAAGGACGGGUCCAGCUGCUUCGGCAGCUGUUGAGUAGAGUGUGAGCUUCUCU
Assay: in-solution fluorescence titration, Spinach/DFHBI-1T turn-off
Details: 125 mM K+, 20 mM Mg2+; apparent; 50 mM Tris pH 8.31, 20 µM DFHBI-1T

KD: 71 ± 4 µM
Structure (SMILES): NCC(=O)O
